Measured values reported in patent US5789434A, “Derivatives of substituted 4-biarylbutyric acid as matrix metalloprotease inhibitors” (priority 1995, dated 1998).

Assays:
Assay type in all cases: biochemical
[1] = target: T1, MMP-2 (Homo sapiens, UniProt P08253); experiment: Automated MMP Profiling Assay, MMP-2 fluorogenic; conditions: 96-well automated, P218; read-out: MMP-2 Fluorogenic IC50 (profiling)
T1 sequence (P08253 110-660): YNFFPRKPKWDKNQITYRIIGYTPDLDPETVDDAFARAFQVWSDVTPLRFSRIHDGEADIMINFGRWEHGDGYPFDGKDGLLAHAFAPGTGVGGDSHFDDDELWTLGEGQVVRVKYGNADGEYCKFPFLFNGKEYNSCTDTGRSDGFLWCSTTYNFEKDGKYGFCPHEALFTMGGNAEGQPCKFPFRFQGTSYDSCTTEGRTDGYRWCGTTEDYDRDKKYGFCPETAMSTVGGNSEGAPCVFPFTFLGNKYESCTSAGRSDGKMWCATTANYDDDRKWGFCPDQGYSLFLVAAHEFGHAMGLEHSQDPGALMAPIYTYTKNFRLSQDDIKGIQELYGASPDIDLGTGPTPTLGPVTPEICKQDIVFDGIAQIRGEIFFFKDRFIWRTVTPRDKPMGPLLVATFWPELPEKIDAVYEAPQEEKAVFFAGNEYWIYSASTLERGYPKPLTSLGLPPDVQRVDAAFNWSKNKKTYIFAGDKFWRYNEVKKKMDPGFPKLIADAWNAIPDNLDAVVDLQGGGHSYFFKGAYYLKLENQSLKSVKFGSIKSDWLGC

[2] = target: T2, MMP-9 (Homo sapiens, UniProt P14780); experiment: Automated MMP Profiling Assay, MMP-9 fluorogenic; conditions: for IC50: 96-well automated, P218
T2 construct: from tissue; host or cells: human polymorphonuclear leukocytes (PMN) from whole blood (New York Blood Center), PMA-stimulated supernatant
T2 sequence (P14780 107-707 limits assumed): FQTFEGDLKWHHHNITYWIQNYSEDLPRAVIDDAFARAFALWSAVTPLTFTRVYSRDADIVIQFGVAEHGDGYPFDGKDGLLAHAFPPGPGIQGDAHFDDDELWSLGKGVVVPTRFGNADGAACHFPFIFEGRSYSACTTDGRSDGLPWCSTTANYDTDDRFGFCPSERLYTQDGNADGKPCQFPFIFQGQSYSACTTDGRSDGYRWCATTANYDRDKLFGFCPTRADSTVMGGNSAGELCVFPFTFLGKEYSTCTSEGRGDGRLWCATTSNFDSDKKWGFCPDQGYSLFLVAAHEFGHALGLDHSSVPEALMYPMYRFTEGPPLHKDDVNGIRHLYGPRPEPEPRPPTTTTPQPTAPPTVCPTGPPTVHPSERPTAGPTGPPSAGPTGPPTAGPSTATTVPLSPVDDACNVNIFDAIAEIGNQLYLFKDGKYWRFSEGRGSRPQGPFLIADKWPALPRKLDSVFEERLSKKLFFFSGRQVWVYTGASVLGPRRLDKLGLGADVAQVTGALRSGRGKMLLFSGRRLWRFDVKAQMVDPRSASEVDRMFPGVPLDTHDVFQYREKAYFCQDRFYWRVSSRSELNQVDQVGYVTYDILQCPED

[3] = target: T3, MMP-3 (Homo sapiens, UniProt P08254); experiment: Automated MMP Profiling Assay, MMP-3 fluorogenic; conditions: 96-well automated, P218
T3 construct: Truncated Prostromelysin-257 was expressed in a soluble form in E.coli; made in house; host or cells: E. coli
T3 sequence (P08254 100-274 limits assumed): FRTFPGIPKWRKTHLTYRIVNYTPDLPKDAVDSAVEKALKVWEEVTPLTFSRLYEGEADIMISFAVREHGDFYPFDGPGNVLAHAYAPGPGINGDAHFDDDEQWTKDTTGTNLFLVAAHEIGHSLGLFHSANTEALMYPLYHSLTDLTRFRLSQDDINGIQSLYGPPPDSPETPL
From the text: This assay with each invention compound was run with the three enzymes MMP-3, MMP-9 and MMP-2 in parallel as adapted for a 96-well microtitre plate using a Hamilton A® workstation.

Row | SMILES | IC50 [1] | IC50 [2] | IC50 [3] | inhibition at 5 µM [2]
1 | COC/C=C/c1ccc(-c2ccc(C(=O)CC(CCCc3ccccc3)C(=O)O)cc2)cc1 (stereo not drawn) [Example 353, [1,1'-Biphenyl]-4-butanoic acid, 4'-(3-methoxy-1-propenyl)-γ-oxo-α-(3-phenylpropyl)-, (E)-] | 20 nM | 274 nM | 84 nM | 
2 | O=C(Nc1ccc(-c2ccc(C(=O)CC(CCc3ccccc3)C(=O)O)cc2)cc1)OCc1ccccc1 (stereo not drawn) [Example 137, [1,1'-Biphenyl]-4-butanoic acid, γ-oxo-α-(2-phenylethyl)-4'-[[(phenylmethoxy)carbonyl]amino]-] | 548 nM | 1400 nM | > 1250 nM | 
3 | O=C(O)[C@H]1[C@H](CSc2cccs2)CC[C@@H]1C(=O)c1ccc(-c2ccc(Cl)cc2)cc1 (relative stereo) [Example 369, Cyclopentanecarboxylic acid, 2-[(4'-chloro[1,1'-biphenyl]-4-yl)carbonyl]-5-[(2-thienylthio)methyl]-, (1α,2β,5β)-] | 37 nM | 139 nM | 54 nM | 
4 | O=C(CC(CCc1cccc(I)c1)C(=O)O)c1ccc(-c2ccc(OCc3ccccc3)cc2)cc1 (stereo not drawn) [Example 163, [1,1'-Biphenyl]-4-butanoic acid, α-[2-(3-iodophenyl)ethyl]-γ-oxo-4'-(phenylmethoxy)-] | 17 nM |  | 64 nM | 18%
5 | CC(=O)OC[C@@H]1C[C@@H](C(=O)c2ccc(-c3ccc(Cl)cc3)cc2)[C@H]1C(=O)O (relative stereo) [Example 397, Cyclobutanecarboxylic acid, 2-[(acetyloxy)methyl]-4-[(4'-chloro[1,1'-biphenyl]-4-yl)carbonyl]-, (1α,2β,4α)-] | 750 nM |  | 3200 nM | 40%
6 | CCCCCSc1ccc(-c2ccc(C(=O)CC(CCCc3ccccc3)C(=O)O)cc2)cc1 (stereo not drawn) [Example 72, [1,1'-Biphenyl]-4-butanoic acid, γ-oxo-4'-(pentylthio)-α-(3-phenylpropyl)-] | 90 nM |  | 409 nM | 22%
7 | O=C(O)[C@H]1CN(C(=O)OCc2ccccc2)C[C@@H]1C(=O)c1ccc(-c2ccc(Cl)cc2)cc1 (relative stereo) [Example 174, 1,3-Pyrrolidinecarboxylic acid, 4-[(4'-chloro[1,1'-biphenyl]-4-yl)carbonyl]-1,-(phenylmethyl) ester, trans-] | 56 nM | 522 nM | 144 nM | 
8 | CC(C)(C)c1ccc2c(c1)C(=O)N(CCC(CC(=O)c1ccc(-c3ccc(Cl)cc3)cc1)C(=O)O)C2=O (stereo not drawn) [Example 414, 2H-Isoindole-2-butanoic acid, α-[2-(4'-chloro[1,1'-biphenyl]-4-yl)-2-oxoethyl]-5-(1,1-dimethylethyl)-1,3-dihydro-1,3-dioxo-] | 79 nM | 15 nM | 37 nM | 
9 | O=C(CC(CCN1C(=O)c2ccccc2C1=O)C(=O)O)c1ccc(-c2ccc(Br)cc2)cc1 (stereo not drawn) [Example 270] | 1.4 nM | 1.6 nM | 6 nM | 
10 | O=C(CC(CCc1ccccc1)C(=O)O)c1ccc(-c2ccc(OCc3ccccc3)cc2)cc1 (stereo not drawn) [Example 161, [1,1'-Biphenyl]-4-butanoic acid, γ-oxo-α-(2-phenylethyl)-4'-(phenylmethoxy)-] | 38 nM | 1560 nM | 46 nM | 
11 | O=C(O)[C@H]1[C@H](CN2C(=O)c3cc4ccccc4cc3C2=O)CC[C@@H]1C(=O)c1ccc(-c2ccc(Cl)cc2)cc1 (relative stereo) [Example 387, Cyclopentanecarboxylic acid, 2-[(4'-chloro[1,1'-biphenyl]-4-yl)carbonyl]-5-[(1,3-dihydro-1,3-dioxo-2H-benz[.function.]isoindol-2-yl)methyl]-, (1α,2β,5β)-] | 4.9 nM | 2 nM | 9.4 nM | 
